Laboratory results from US10716830B2, “ERBB4 activator screening assay” (Children's Hospital Los Angeles, priority 2011, dated 2020).

How the values were obtained:
Type in all cases: cell-based, mouse
[1] = tested on: EGFR, ErbB2, ErbB3, and ErbB4; experiment: ErbB receptor phosphorylation by western blot with phospho-specific antibodies; conditions: YAMC-B4 cells (human ErbB4 construct); 10 min; HRG-1β 100 ng/ml, NRG4, EGF 10 ng/ml
From the text: Conditionally immortalized, non-transformed young adult mouse colon (YAMC) epithelial cells were provided by Dr. Robert Whitehead (Whitehead, R. H., VanEeden, P. E., Noble, M. D., Ataliotis, P., and Jat, P. S. (1993) Proc Natl Acad Sci USA 90, 587-591). These cells express low levels of endogenous ErbB4; YAMC-B4 cells expressing a human ErbB4 construct were generated as previously described (Frey, M. R., Edelblum, K. L., Mullane, M. T., Liang, D., and Polk, D. B. (2009) Gastroenterology 136, 217-226). […]
(§1) Cell lysates were extracted in modified RIPA buffer as previously described (Frey, M. R., Dise, R. S., Edelblum, K. L., and Polk, D. B. (2006) Embo J 25, 5683-5692), cleared by centrifugation, and boiled in Laemmli sample buffer. Samples were separated on SDS-polyacrylamide gels (6-10% as appropriate), blotted on PVDF membranes, and subjected to quantitative immunoblot using the Li-Cor Odyssey infrared detection system. Equal loading was monitored by immunoblots for actin and at least one additional protein.
Phosphorylation of EGFR, ErbB2, ErbB3, and ErbB4 was determined by western blot analysis of cell lysates using phospho-specific antibodies. […]

YAMC-B4 cells [2] = experiment: EdU proliferation assay; conditions: 24 h stimulation
Protocol: Proliferative index in fixed colon specimens was assessed by immunohistochemical stain for Ki-67. In vitro, cells were exposed to vehicle or growth factors for 24 h, then labeled with 5-ethynyl-2-deoxyuridine (EdU) for 2 h and fixed. Nuclei were marked with DAPI, and incorporated EdU was detected using a Click-iT EdU kit (Invitrogen).
Most ErbB ligands stimulate multiple cellular processes, including proliferation and migration, in colon epithelial cells (Frey, M. R., Golovin, A., and Polk, D. B. (2004) J Biol Chem 279, 44513-44521). To determine if NRG4 is similarly broad in its cellular effects, we subjected YAMC-B4 cells to proliferation assays in the presence of NRG4. […] In vivo, the number of Ki67-positive nuclei per crypt in PBS vs. NRG4-injected mice was not altered 24 h post-injection (FIG. 4B).

YAMC-B4 cells [3] = experiment: Cell migration/restitution (modified scratch) assay; conditions: 8 h
Protocol: Cells grown on fibronectin-coated plates were subjected to multiple circular wounds with a rotating silicone probe as previously described (Corredor, J., Yan, F., Shen, C. C., Tong, W., John, S. K., Wilson, G., Whitehead, R., and Polk, D. B. (2003) American journal of physiology. Cell physiology 284, C953-961). Cultures were photographed immediately and 8 h after wounding; % closure was determined by measuring wounds in Image.
To test the potential effect of NRG4-ErbB4 signaling on cell motility, we used a modified scratch assay for restitution/migration (Corredor, J., Yan, F., Shen, C. C., Tong, W., John, S. K., Wilson, G., Whitehead, R., and Polk, D. B. (2003) American journal of physiology. Cell physiology 284, C953-961). Over an 8 h period, NRG4 had no effect on the rate at which YAMC-B4 cells moved into the denuded area of a culture plate (FIG. 4C), while in contrast EGF caused a 54% increase in migration over control.

Akt = Akt phosphorylation in whole cell lysates by western blot; conditions: YAMC-B4 cells; NRG4 100 ng/ml, 10 min
From the text: as §1
(§2) To identify signaling pathways which could be involved in NRG4-stimulated cell survival, we exposed YAMC-B4 cells to NRG4 or EGF and prepared whole cell lysates for western blot analysis. […] Furthermore, COX-2 expression, which is induced by either HRG-1β or EGF after 6 h exposure, and is required for cell survival induced by ErbB4-EGFR dimers (Frey, M. R., Hilliard, V. C., Mullane, M. T., and Polk, D. B. (2010) Laboratory Investigation 90, 1415-1424), was not induced by NRG4. Thus, NRG4 promotes cell survival through pathways at least partly distinct from those activated by other ligands.

ERK MAPK = ERK MAPK phosphorylation in whole cell lysates by western blot; conditions: YAMC-B4 cells; NRG4 100 ng/ml, 10 min
From the text: as §1, §2

COX-2 = COX-2 expression in YAMC-B4 cells; conditions: 6 h exposure
Protocol: as §2

In the case of “epidermal growth factor (NSYPGCPSSYDGYCLNGGVCMHIESLDSYTCNCVIGYSGDRCQTRDLRWWELR; Epidermal growth factor; UniProt P01132 977-1029, looked up) [EGF, Recombinant murine EGF from Peprotech; positive control for cell stimulation, reference compound]”, the “phosphorylation of EGFR, ErbB2, ErbB3, and ErbB4” value [1] is reported as “stimulated phosphorylation of multiple ErbBs”, the “stimulation of proliferation over control (EdU)” value (YAMC-B4 cells [2]) is reported as 31.5% and the “increase in migration over control” value (YAMC-B4 cells [3]) is reported as 54%. The “phosphorylation of Akt” value (Akt) was “activated both cascades”, the “phosphorylation of ERK MAPK” value (ERK MAPK) was “activated both cascades” and the COX-2 expression (COX-2) was “induced”.
